Patent US20220193111A1, “Method of Treatment” (The University Court of the University of Edinburgh, priority 2018, published 2022)

Test system: HUVECs treated with TNF-α/IL-1β
Experiment: Rescue of TNF-α/IL-1β-induced EndMT in HUVECs
Type: cell-based, human
Details: 10 μM, HUVECs with TNF-α/IL-1β 6 days
Experimental: Human umbilical vein ECs (HUVECs; Lonza) were grown in EGM-2 (comprising EBM-2 with growth factors and other supplements) with 2% Foetal Bovine Serum. Confluent HUVECs were treated with 10 ng/ml TNF-α, IL-1β, TGFβ2 (PeproTech); medium and cytokines were changed every two days. SB431542 (Tocris) has been used at the dose of 10 μM. HEK293T cells (ATCC®, CRL-11268) were cultured in D-MEM with 10% FBS (Life Technologies).
Total RNA was extracted using miReasy kit (Qiagen). Real-time quantification to measure miRNAs was performed with the TaqMan miRNA reverse transcription kit and miRNA assay (Life Technology) using Lightcycler 480 (Roche). miRNAs expression was normalized to the U6 […] (snRU6). For mRNA analysis, cDNA was amplified by quantitative real-time PCR (qPCR) and normalized to 18S ribosomal RNA. Each reaction was performed in triplicate. Quantification was performed by the 2^−ΔΔCt method^52. qPCR was used to measure the expression of miR-148b (miR-148b-3p Thermo Fisher Scientific, Cat. #4426961), snRU6 (ThermoFisher Scientific, Cat. #4331182), TGFβ2, SMAD2, CD31, VE-Cadherin, COL1A1, α-SMA, SLUG, VIM, SNAIL, TWIST, ZEB1/2 and 18S rRNA. Primers are pre-designed from Sigma (KiCgStart™ Primers).
Lipofectamine RNAiMAX (Thermo Fisher Scientific) was used to transfect HUVECs with miR-148b mimic, anti-miR-148b and mimic or anti-miR control (25 nM and […], respectively final concentration) or with siRNA targeting SMAD2 (20 nM final concentration), according to the manufacturer's instructions. jetPEI-HUVECs (Polyplus) was used to transfect HUVECs with DNA plasmids. The following functional assays were performed: BrdU incorporation assay using Cell Proliferation colorimetric assay (Roche); Matrigel assay with HUVECs was performed as previously described using BD Matrigel Basement Membrane Matrix (BD Biosciences)^53.
Proteins were extracted from cultured cells or muscles by using ice-cold buffer A (50 mM Hepes, 150 mM NaCl, 1 mM EDTA, 1 mM EGTA, 25 mM NaF, 5 mM NaPPi, 1%Triton, 1% NP40, 1 mM Na3VO4, 0.25% sodium deoxycholate, 0.5 mM Na-orthovanadate, 1 mM benzamidine, 0.1 mM phenylmethylsulfonyl fluoride). Protein concentration was determined using the Bio-Rad Protein Assay Reagent (Bio-Rad Laboratories, UK). Detection of proteins by Western blot analyses was done following separation of whole cell extracts (20 μg) on SDS-polyacrylamide gels. Proteins were transferred to nitrocellulose membranes and probed with the following antibodies: TGFβ2 (Abcam, ab36495, 1:1000), SMAD2 (SantaCruz Biotechnology, Santa Cruz, Calif., USA; #3102, 1:1000), p-SMAD2 (465/467) (Cell Signaling; #3108, 1:1000); CD31 (Abcam., 1:1000), VE-Cadherin (Abcam, ab33168, 1:1000), COL1A1 (Abcam, ab138492, 1:200), FSP-1 (5100A4; Abcam, ab41532, 1:1000), SLUG (Abcam, ab27568, 1:1000), β-actin (Abcam, ab16039, 1:4000), HDAC3 (GeneTex GTX113303, 1:1000) and GAPDH (GeneTex, GT239, 1:1000) (both used as loading control). For detection, the inventors used secondary antibodies conjugated to horseradish peroxidase which were rabbit anti-mouse (Abcam, ab97046, 1:5000) and goat anti-rabbit (Abcam, ab6721, 1:10000). Detection was developed by chemiluminescence reaction (ECL) (Immunoblot, Millipore, 23225).
Cells were fixed using 4% paraformaldehyde in PBS at room temperature for 15 min. For intracellular staining, fixed cells were permeabilized using 0.5% Triton X-100 in PBS (Sigma-Aldrich) or 0.1% Saponin in PBS at room temperature for 10 min. The blocking of […] antibody activity was performed using 3% bovine serum albumin (BSA) in PBS for 1 hour. Samples were incubated with antibodies to CD31 (Abcam, ab28364, 1:50), VE-cadherin (Abcam, ab33168, 1:100), FSP-1 (Abcam, ab41532, 1:200) and COL1A1 (Abcam, ab138492, 1:100) in PBS containing 1% BSA at 4° C. overnight. […]

NC(=O)c1ccc(-c2nc(-c3ccc4c(c3)OCO4)c(-c3ccccn3)[nH]2)cc1 [SB431542, reference compound]
endothelial markers (CD31, VE-Cadherin) expression: did not rescue
level of SMAD2 phosphorylation: reduced
endothelial markers (CD31, VE-Cadherin) expression (listed as SB43152): did not restore
